In patent US7109193B2, “Tricyclic diazepines tocolytic oxytocin receptor antagonists” (Wyeth, priority 2001, dated 2006):

Biological target: T1, human vasopressin V2 receptor subtype (Homo sapiens, UniProt P30518)
T1 construct: host or cells: CHO cells (pZeoSV vector)
Assay: Vasopressin binding in Chinese Hamster Ovary cell membranes expressing human vasopressin V2 subtype receptors
Conditions: 100 nM, CHO cell membranes, [3H]arginine vasopressin, values without parentheses
Method in brief: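 Radioligand displacement on membranes from CHO cells stably expressing human V2 receptor, 25 to 50 μg protein/well, in 50 mM Tris-HCl pH 7.4 with MgCl2, BSA and protease inhibitors. [^3H]arginine vasopressin (8 nM working solution) incubated 60 min at room temperature; bound label measured by filtration and scintillation counting.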

T1 sequence (P30518 whole entry): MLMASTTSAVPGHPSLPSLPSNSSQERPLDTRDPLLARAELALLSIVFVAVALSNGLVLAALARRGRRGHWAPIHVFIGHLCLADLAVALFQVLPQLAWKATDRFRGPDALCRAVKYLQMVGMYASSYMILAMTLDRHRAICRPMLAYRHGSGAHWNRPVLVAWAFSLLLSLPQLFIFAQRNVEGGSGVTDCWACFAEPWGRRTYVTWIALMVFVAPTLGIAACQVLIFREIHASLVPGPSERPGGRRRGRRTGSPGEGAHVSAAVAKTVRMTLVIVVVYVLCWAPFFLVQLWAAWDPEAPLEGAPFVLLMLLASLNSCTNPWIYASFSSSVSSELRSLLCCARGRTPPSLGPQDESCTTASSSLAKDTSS

| Compound | inhibition at 0.1 µM [%] |
| --- | --- |
| Cc1cc(C(=O)N2Cc3ccc(C(=O)N[C@@H](Cc4c[nH]cn4)C(N)=O)n3Cc3ccccc32)ccc1-c1ccccc1C(F)(F)F [Example 284, N-[(1S)-2-Amino-1-(1H-imidazol-4-ylmethyl)-2-oxoethyl]-10-{[2-methyl-2′-(trifluoromethyl)[1,1′-biphenyl]-4-yl]carbonyl}-10,11-dihydro-5H-pyrrolo[2,1-c][1,4]benzodiazepine-3-carboxamide] | 12 |
| CN1CCN(C(=O)c2ccc3n2Cc2ccccc2N(C(=O)c2ccc(-c4cccc5ccccc45)cc2Cl)C3)CC1 [Example 58, {10-[2-Chloro-4-(1-naphthyl)benzoyl]-10,11-dihydro-5H-pyrrolo[2,1-c][1,4]benzodiazepin-3-yl}(4-methyl-1-piperazinyl)methanone] | 18 |
| COc1cccc(-c2cc(OC)c(C(=O)N3Cc4ccc(C(=O)N[C@@H](Cc5c[nH]cn5)C(N)=O)n4Cc4ccccc43)cc2Cl)c1 [Example 287, N-[(1S)-2-Amino-1-(1H-imidazol-4-ylmethyl)-2-oxoethyl]-10-[(6-chloro-3,3′-dimethoxy[1,1′-biphenyl]-4-yl)carbonyl]-10,11-dihydro-5H-pyrrolo[2,1-c][1,4]benzodiazepine-3-carboxamide] | 26 |
| COc1cccc(-c2ccc(C(=O)N3Cc4ccc(C(=O)N5CCCN(C)CC5)n4Cc4ccccc43)cc2OC)c1 [Example 70, {10-[(2,3′-Dimethoxy[1,1′-biphenyl]-4-yl)carbonyl]-10,11-dihydro-5H-pyrrolo[2,1-c][1,4]benzodiazepin-3-yl}(4-methyl-1,4-diazepan-1-yl)methanone] | 11 |
| COc1cc(C(=O)N2Cc3ccc(C(=O)n4ccnc4)n3Cc3ccccc32)ccc1-c1cccc2ccccc12 [Example 291, 1H-Imidazol-1-yl-{10-[3-methoxy-4-(1-naphthyl)benzoyl]-10,11-dihydro-5H-pyrrolo[2,1-c][1,4]benzodiazepin-3-yl}methanone] | 5 |
| COc1cc(C(=O)N2Cc3ccc(C(=O)N4CCN(C)CC4)n3Cc3ccccc32)ccc1-c1cccc2ccccc12 [Example 55, {10-[3-Methoxy-4-(1-naphthyl)benzoyl]-10,11-dihydro-5H-pyrrolo[2,1-c][1,4]benzodiazepin-3-yl}(4-methyl-1-piperazinyl)methanone] | 30 |
| Cc1ccccc1-c1ccc(C(=O)N2Cc3ccc(C(=O)NCCCN(C)C)n3Cc3ccccc32)cc1 [Example 76, N-[3-(Dimethylamino)propyl]-10-[(2′-methyl[1,1′-biphenyl]-4-yl)carbonyl]-10,11-dihydro-5H-pyrrolo[2,1-c][1,4]benzodiazepine-3-carboxamide] | 17 |
| COc1cc(C(=O)N2Cc3ccc(C(=O)N4CCN(CCCN(C)C)CC4)n3Cc3ccccc32)ccc1-c1cccc2ccccc12 [Example 253, {4-[3-(Dimethylamino)propyl]-1-piperazinyl}{10-[3-methoxy-4-(1-naphthyl)benzoyl]-10,11-dihydro-5H-pyrrolo[2,1-c][1,4]benzodiazepin-3-yl}methanone] | -10 |
| COc1cc(C(=O)N2Cc3ccc(C(=O)N4CCN(CCN5CCOCC5)CC4)n3Cc3ccccc32)ccc1-n1c(C)ccc1C [Example 317, {10-[4-(2,5-Dimethyl-1H-pyrrol-1-yl)-3-methoxybenzoyl]-10,11-dihydro-5H-pyrrolo[2,1-c][1,4]benzodiazepin-3-yl}{4-[2-(4-morpholinyl)ethyl]-1-piperazinyl}methanone] | 15 |
| COc1cc(C(=O)N2Cc3ccc(C(=O)NCCCn4ccnc4)n3Cc3ccccc32)ccc1-n1c(C)ccc1C [Example 312, 10-[4-(2,5-Dimethyl-1H-pyrrol-1-yl)-3-methoxybenzoyl]-N-[3-(1H-imidazol-1-yl)propyl]-10,11-dihydro-5H-pyrrolo[2,1-c][1,4]benzodiazepine-3-carboxamide] | 3 |
| Cc1ccccc1-c1ccc(C(=O)N2Cc3ccc(C(=O)N4CCN(C)CC4)n3Cc3ccccc32)cc1 [Example 52, {10-[(2′-Methyl[1,1′-biphenyl]-4-yl)carbonyl]-10,11-dihydro-5H-pyrrolo[2,1-c][1,4]benzodiazepin-3-yl}(4-methyl-1-piperazinyl)methanone] | 17 |
| Cc1ccccc1-c1ccc(C(=O)N2Cc3ccc(C(=O)NCCCN(C)C)n3Cc3ccccc32)cc1C [Example 73, N-[3-(Dimethylamino)propyl]-10-[(2,2′-dimethyl[1,1′-biphenyl]-4-yl)carbonyl]-10,11-dihydro-5H-pyrrolo[2,1-c][1,4]benzodiazepine-3-carboxamide] | 21 |
| COc1cc(C(=O)N2Cc3ccc(C(=O)N4CCC(N5CCCCC5)CC4)n3Cc3ccccc32)ccc1-n1c(C)ccc1C [Example 311, {10-[4-(2,5-Dimethyl-1H-pyrrol-1-yl)-3-methoxy-benzoyl]-10,11-dihydro-5H-pyrrolo[2,1-c][1,4]benzodiazepin-3-yl}[4-(1-piperidinyl)-1-piperidinyl]-methanone] | 7 |
| Cc1cc(C(=O)N2Cc3cccn3Cc3ccccc32)cc(C)c1-n1c(C)ccc1C [Example 30, [4-(2,5-Dimethyl-1H-pyrrol-1-yl)-3,5-dimethyl-phenyl][10,11-dihydro-5H-pyrrolo[2,1-c][1,4]benzodiazepin-10-yl]methanone] | 3 |
| COc1cc(C(=O)N2Cc3ccc(C(=O)n4ccnc4)n3Cc3ccccc32)ccc1-c1ccccc1C [Example 290, 1H-Imidazol-1-yl-{10-[(2-methoxy-2′-methyl[1,1′-biphenyl]-4-yl)carbonyl]-10,11-dihydro-5H-pyrrolo[2,1-c][1,4]benzodiazepin-3-yl}methanone] | -6 |
| COc1ccccc1-c1ccc(C(=O)N2Cc3ccc(C(=O)N4CCCN(C)CC4)n3Cc3ccccc32)cc1C [Example 62, {10-[(2′-Methoxy-2-methyl[1,1′-biphenyl]-4-yl)carbonyl]-10,11-dihydro-5H-pyrrolo[2,1-c][1,4]benzodiazepin-3-yl}(4-methyl-1,4-diazepan-1-yl)methanone] | 27 |
| COc1ccccc1-c1ccc(C(=O)N2Cc3ccc(C(=O)N[C@H]4CN5CCC4CC5)n3Cc3ccccc32)cc1 [Example 296, N-[(3R)-1-Azabicyclo[2.2.2]oct-3-yl]-10-[(2′-methoxy[1,1′-biphenyl]-4-yl)carbonyl]-10,11-dihydro-5H-pyrrolo[2,1-c][1,4]benzodiazepine-3-carboxamide] | 24 |

The next lines start with the values.

| inhibition at 0.1 µM [%] | Compound |
| --- | --- |
| 20 | COc1cc(C(=O)N2Cc3ccc(C(=O)N4CCCN(C)CC4)n3Cc3ccccc32)ccc1-c1ccccc1C [Example 66, {10-[(2-Methoxy-2′-methyl[1,1′-biphenyl]-4-yl)carbonyl]-10,11-dihydro-5H-pyrrolo[2,1-c][1,4]benzodiazepin-3-yl}(4-methyl-1,4-diazepan-1-yl)methanone] |
| 8 | COc1cc(C(=O)N2Cc3ccc(C(=O)N4CCCN(C)CC4)n3Cc3ccccc32)ccc1-n1c(C)ccc1C [Example 307, {10-[4-(2,5-Dimethyl-1H-pyrrol-1-yl)-3-methoxybenzoyl]-10,11-dihydro-5H-pyrrolo[2,1-c][1,4]benzodiazepin-3-yl}(4-methyl-1,4-diazepan-1-yl)methanone] |
| 32 | CCOc1ccccc1-c1cc(OC)c(C(=O)N2Cc3cccn3Cc3ccccc32)cc1Cl [Example 17, 10-{[6-Chloro-3-methoxy-2′-ethoxy[1,1′-biphenyl]-4-yl]carbonyl}-10,11-dihydro-5H-pyrrolo[2,1-c][1,4]benzodiazepine] |
| -10 | COc1cc(C(=O)N2Cc3ccc(C(=O)N4CCN(CCCN(C)C)CC4)n3Cc3ccccc32)ccc1-c1ccccc1C [Example 250, {4-[3-(Dimethylamino)propyl]-1-piperazinyl}{10-[(2-methoxy-2′-methyl[1,1′-biphenyl]-4-yl)carbonyl]-10,11-dihydro-5H-pyrrolo[2,1-c][1,4]benzodiazepin-3-yl}methanone] |
| -7 | COc1ccccc1-c1ccc(C(=O)N2Cc3ccc(C(=O)n4ccnc4)n3Cc3ccccc32)cc1C [Example 292, 1H-Imidazol-1-yl-{10-[(2′-methoxy-2-methyl[1,1′-biphenyl]-4-yl)carbonyl]-10,11-dihydro-5H-pyrrolo[2,1-c][1,4]benzodiazepin-3-yl}methanone] |
| 27 | COc1ccccc1-c1ccc(C(=O)N2Cc3ccc(C(=O)N4CCN(C)CC4)n3Cc3ccccc32)cc1C [Example 49, {10-[(2′-Methoxy-2-methyl[1,1′-biphenyl]-4-yl)carbonyl]-10,11-dihydro-5H-pyrrolo[2,1-c][1,4]benzodiazepin-3-yl}(4-methyl-1-piperazinyl)methanone] |
| 27 | COc1cccc(-c2ccc(C(=O)N3Cc4ccc(C(=O)N5CCN(CCCN(C)C)CC5)n4Cc4ccccc43)cc2OC)c1 [Example 255, {10-[(2,3′-Dimethoxy[1,1′-biphenyl]-4-yl)carbonyl]-10,11-dihydro-5H-pyrrolo[2,1-c][1,4]benzodiazepin-3-yl}{4-[3-(dimethylamino)propyl]-1-piperazinyl}methanone] |
| -2 | COc1cc(C(=O)N2Cc3ccc(C(=O)N4CCN(CCN(C)C)CC4)n3Cc3ccccc32)ccc1-n1c(C)ccc1C [Example 316, {4-[2-(Dimethylamino)ethyl]-1-piperazinyl}{10-[4-(2,5-dimethyl-1H-pyrrol-1-yl)-3-methoxybenzoyl]-10,11-dihydro-5H-pyrrolo[2,1-c][1,4]benzodiazepin-3-yl}methanone] |
| 19 | COc1cccc(-c2ccc(C(=O)N3Cc4ccc(C(=O)N5CCCN(C)CC5)n4Cc4ccccc43)cc2C)c1 [Example 64, {10-[(3′-Methoxy-2-methyl[1,1′-biphenyl]-4-yl)carbonyl]-10,11-dihydro-5H-pyrrolo[2,1-c][1,4]benzodiazepin-3-yl}(4-methyl-1,4-diazepan-1-yl)methanone] |
